We go through 13 compounds from patent US4636563A, “Antipsychotic γ-carbolines” (American Home Products Corporation, priority 1985, dated 1987).

Molecules are shown by their SMILES. Bounds are passed on as bounds.

The target of one assay is T1, serotonin-2 receptors (Rattus norvegicus, UniProt P14842).
T1 construct: In an analogous test procedure employing brain cortical tissue; from tissue; host or cells: brain cortical tissue
The experiment in a line: Cortical 5-HT2 binding (brain cortical tissue). The settings on record: for Ki: 95% confidence interval in brackets, read-out: Cortical 5-HT2 inhibition constant (Ki). From the text:
(§1) The following examples illustrate the production of compounds of this invention. After each example the pharmacological evaluation for the compound produced is presented. The conditioned avoidance tests are reported as relative activity for the shelf-jump (S-J) at the intraperitoneal (i.p.) dose administered in mg/kg and the AB50 is presented for the lever-response (L-R) test at the oral (p.o.) dose in mg/kg. The inhibition constant is reported for limbic D-2 binding expressed in nM concentration. Similarly, the inhibition constant for cortical 5-HT2 binding is reported as the inhibition constant in nM concentration.

Assay [1] relates to conditioned avoidance responding (lever-response). The experiment in a line: Conditioned avoidance, lever-response (L-R). The format is in vivo, male CD rats. Conditions: Rattus norvegicus, po; 95% confidence interval in brackets; read-out: L-R AB50 (50% block in avoidance responding).
Description: (§2) The antipsychotic properties of the compounds of this invention were established by standard pharmacologically accepted procedures involving two conditioned avoidance studies in which trained male CD rats (Charles River), 400-450 gm body weight are exposed to a fifteen second warning tone (conditioned stimulus) continued for an additional fifteen seconds accompanied by electric shock. The rat can avoid the electric shock by depression of a response lever (lever-response) or in a different study by jumping to an exposed shelf (shelf-jump response). In either test situation, a response during the initial warning tone is considered an avoidance response while a response during shock delivery is considered an escape response. The avoidance response is determined and expressed as a percentage of total trials from an appropriate number of trials and a 50% block in avoidance responding (AB50) is obtained from a dose-effect regression line. The shelf-jump response test procedure follows that of Herman et al., Comm. in Psychopharm., 3, pp. 165-171 (1979).
as §1

In assay [2] the target is T2, limbic D-2 (dopamine receptor) (Rattus norvegicus, UniProt P61169).
T2 construct: from tissue; host or cells: homogenized limbic brain tissue
T2 sequence (P61169 whole entry): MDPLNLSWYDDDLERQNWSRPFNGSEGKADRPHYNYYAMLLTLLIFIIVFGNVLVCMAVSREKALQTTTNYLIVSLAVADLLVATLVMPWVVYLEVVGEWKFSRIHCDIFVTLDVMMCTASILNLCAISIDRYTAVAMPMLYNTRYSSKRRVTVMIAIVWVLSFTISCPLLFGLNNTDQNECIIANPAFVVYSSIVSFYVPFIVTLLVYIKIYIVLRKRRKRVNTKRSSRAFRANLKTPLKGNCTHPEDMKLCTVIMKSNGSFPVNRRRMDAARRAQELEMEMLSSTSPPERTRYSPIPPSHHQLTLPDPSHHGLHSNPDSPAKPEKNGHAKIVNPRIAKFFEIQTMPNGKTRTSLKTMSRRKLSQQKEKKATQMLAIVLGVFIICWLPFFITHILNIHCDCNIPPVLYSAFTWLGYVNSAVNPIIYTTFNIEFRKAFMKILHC
Description: Limbic D-2 binding (3H-spiroperidol, homogenized limbic brain tissue). The settings on record: 95% confidence interval in brackets, read-out: Limbic D-2 inhibition constant (Ki). The procedure:
Binding in the presence of the test compound is expressed as a percent of specific binding (total binding less binding in the presence of 1 μM (+)butaclamol). An inhibition constant (Ki) is calculated for each test compound to catagorize its limbic D-2 binding potential. The larger the number, the less potential for dopamine receptor binding and attendant side effects from administration of the antipsychotic agent.
as §1

Assay [3] deals with conditioned avoidance responding (shelf-jump). The experiment in a line: Conditioned avoidance, shelf-jump response (S-J). The format is in vivo, male CD rats.
Description: as §2, §1

T1 sequence (P14842 whole entry): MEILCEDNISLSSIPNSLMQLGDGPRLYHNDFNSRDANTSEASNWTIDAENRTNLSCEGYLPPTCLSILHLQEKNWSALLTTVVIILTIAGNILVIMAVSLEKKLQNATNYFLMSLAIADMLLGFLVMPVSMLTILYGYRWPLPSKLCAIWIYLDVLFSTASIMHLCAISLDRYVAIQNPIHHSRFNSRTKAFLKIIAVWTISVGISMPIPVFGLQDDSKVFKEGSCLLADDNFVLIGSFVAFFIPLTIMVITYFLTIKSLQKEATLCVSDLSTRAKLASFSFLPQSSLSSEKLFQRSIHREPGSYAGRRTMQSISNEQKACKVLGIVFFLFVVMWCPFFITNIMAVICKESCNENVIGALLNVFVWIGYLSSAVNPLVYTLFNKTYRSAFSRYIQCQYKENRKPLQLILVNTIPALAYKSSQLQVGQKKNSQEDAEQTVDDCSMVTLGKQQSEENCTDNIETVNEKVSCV

Regarding `Fc1ccc2[nH]c3c(c2c1)CN(CCCCc1ccncc1)CC3` [Example 1, 8-Fluoro-2,3,4,5-tetrahydro-2-[4-(4-pyridinyl)butyl]-1H-pyrido[4,3-b]-indole], the figures for the inhibition constant Ki (on serotonin-2 receptors; in assay [2]) were 480 nM and 143 nM, respectively. Moreover, the ED50 in assay [1] is 15.1 mg/kg. For the same compound, in assay [3] (20 mg/kg i.p.), the S-J relative activity result was “Active”.
Turning to `Fc1ccc2[nH]c3c(c2c1)CN(CCc1ccccn1)CC3` [Example 2, 8-Fluoro-2,3,4,5-tetrahydro-2-[2-(2-pyridinyl)ethyl]-1H-pyrido[4,3-b]indole], the inhibition constant Ki at serotonin-2 receptors turned out to be 173 nM; in assay [2], 26 nM. Moreover, in assay [1], the ED50 worked out at 37.6 mg/kg. The S-J relative activity result in assay [3] (20 mg/kg i.p.) is reported as “Active”.
On to `Fc1ccc2[nH]c3c(c2c1)CN(CCc1ccncc1)CC3` [Example 3, 8-Fluoro-2,3,4,5-tetrahydro-2-[2-(4-pyridinyl)ethyl]1H-pyrido[4,3-b]indole], for which the inhibition constant (Ki) at serotonin-2 receptors turned out to be 211 nM.
Consider `Fc1ccc2[nH]c3c(c2c1)CN(CCc1ccc2ccccc2n1)CC3` [Example 4, 8-Fluoro-2,3,4,5-tetrahydro-2-[2-(2-quinolinyl)ethyl]-1H-pyrido[4-3-b]indole], for which the inhibition constant (Ki) in assay [2] came out at 185 nM. For the same compound, the S-J relative activity result in assay [3] (20 mg/kg i.p.) is “Active”.
As for `c1ccc2nc(CCN3CCc4[nH]c5ccccc5c4C3)ccc2c1` [Example 5, 2,3,4,5-Tetrahydro-2-[2-(2-quinolinyl)ethyl]-1H-pyrido[4,3-b]indole], the S-J relative activity result in assay [3] (40 mg/kg i.p.) was “Active”.
In the case of `c1ccc2c3c([nH]c2c1)CCN(CCCCc1ccncc1)C3` [Example 6, 2,3,4,5-Tetrahydro-2-[4-(4-pyridinyl)butyl]-1H-pyrido[4,3-b]indole], in assay [1], the ED50 is over 20 mg/kg. For the same compound, the S-J relative activity entry in assay [3] (20 mg/kg i.p.) and in assay [3] (40 mg/kg i.p.) was “Active” each time.
`c1cncc(CCCN2CCc3[nH]c4ccccc4c3C2)c1` [Example 7, 2,3,4,5-Tetrahydro-2-[3-(3-pyridinyl)propyl]-1H-pyrido[4,3-b]indole]: the Ki on serotonin-2 receptors stood at 252 nM. Further, in assay [1], the ED50 came out at 33.1 mg/kg. Besides, the S-J relative activity result in assay [3] (40 mg/kg i.p.) is on record as “Active”.
For `Clc1ccc2[nH]c3c(c2c1)CN(CCCCc1ccncc1)CC3` [Example 8, 8-Chloro-2,3,4,5-tetrahydro-2-[4-(4-pyridinyl)butyl]-1H-pyrido[4,3-b]indole], the Ki amounted to 60 nM on serotonin-2 receptors and 106 nM in assay [2]. Besides, the ED50 in assay [1] came out at 36.1 mg/kg. Also, the S-J relative activity entry in assay [3] (40 mg/kg i.p.) is recorded as “Active”.
With `Clc1ccc2[nH]c3c(c2c1)CN(CCc1ccccn1)CC3` [Example 9, 8-Chloro-2,3,4,5-tetrahydro-2-[2-(2-pyridinyl)ethyl]-1H-pyrido[4,3-b]indole], in assay [1], the ED50 is over 40 mg/kg. Further, in assay [3] (40 mg/kg i.p.), the S-J relative activity entry was “Active”.
Consider `Clc1ccc2[nH]c3c(c2c1)CN(CCc1ccc2ccccc2n1)CC3` [Example 10, 8-Chloro-2,3,4,5-tetrahydro-2-[2-(2-quinolinyl)ethyl]-1H-pyrido-[4,3-b]indole], for which the ED50 in assay [1] was over 40 mg/kg. In assay [2], the Ki came out at 82 nM. For the same compound, the S-J relative activity entry in assay [3] (40 mg/kg i.p.) was “Active”.
Turning to `Fc1ccc2[nH]c3c(c2c1)CN(CCCc1cccnc1)CC3` [Example 11, 8-Fluoro-2,3,4,5-tetrahydro-2-[3-(3-pyridinyl)propyl]1H-pyrido[4,3-b]indole], the Ki on serotonin-2 receptors was found to be 136 nM; in assay [2], 395 nM. In addition, in assay [1], the ED50 worked out at 14.4 mg/kg. For the same compound, in assay [3] (20 mg/kg i.p.), the S-J relative activity entry was “Active”.
Turning to `Clc1ccc2[nH]c3c(c2c1)CN(CCCc1ccccn1)CC3` [Example 12, 8-Chloro-2,3,4,5-tetrahydro-2-[3-(2-pyridinyl)-propyl]-1H-pyrido[4,3-b]indole], the inhibition constant (Ki) at serotonin-2 receptors turned out to be 28 nM; in assay [2], 126 nM. Moreover, in assay [1], the ED50 was over 40 mg/kg. The S-J relative activity entry in assay [3] (40 mg/kg i.p.) is on record as “Active”.
As for `NCCc1ccc(O)c(O)c1` [dopamine, reference compound], at serotonin-2 receptors (reference ligands), the inhibitory constant (Ki) at serotonin-2 receptors was “inactive”.
